# Test results: paper PMC2806265, “Divergence of allosteric effects of rapacuronium on binding and function of muscarinic receptors” (BMC Pharmacology, 2009)
# pKd: −log10 of the molar value.
# Tests used:
# M2 muscarinic receptor = molecular target: T1, M2 muscarinic receptor (Homo sapiens, UniProt P08172); assay: [3H]ACh association and dissociation kinetics; assay type: binding; set-up: host or cells: CHO cells, stably transfected; membrane preparation; conditions: 10 μM rapacuronium, 40 nM [^3H]ACh
# T1 sequence (P08172 1-466): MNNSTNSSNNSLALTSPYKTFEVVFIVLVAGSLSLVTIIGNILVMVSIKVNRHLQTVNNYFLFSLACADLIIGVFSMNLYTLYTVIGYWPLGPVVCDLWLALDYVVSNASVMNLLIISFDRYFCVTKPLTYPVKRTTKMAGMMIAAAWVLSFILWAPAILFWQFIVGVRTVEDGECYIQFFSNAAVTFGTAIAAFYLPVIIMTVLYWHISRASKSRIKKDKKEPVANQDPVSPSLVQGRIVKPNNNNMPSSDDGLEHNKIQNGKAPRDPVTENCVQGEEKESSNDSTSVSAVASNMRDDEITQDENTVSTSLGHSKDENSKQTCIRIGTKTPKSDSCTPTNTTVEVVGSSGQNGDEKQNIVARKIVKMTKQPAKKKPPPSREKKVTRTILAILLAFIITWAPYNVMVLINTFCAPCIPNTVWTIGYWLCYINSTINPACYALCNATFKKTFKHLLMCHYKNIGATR
# Text: y, radioligand binding at time x; kobs, observed rate of association; equilibrium binding Beq = Bottom + Span.
# y, radioligand binding at time x normalized to binding at time 0; koff1 and koff2, dissociation rate constants; f2, fraction of binding site with dissociation rate constant koff2. When both Eq. 7a and 7b were fitted to data the better fit was chosen based on sum of squares F-test and runs test.
# M5 muscarinic receptor [1] = molecular target: T2, M5 muscarinic receptor (Homo sapiens, UniProt P08912); assay: Effect of rapacuronium on 1 nM [3H]NMS binding; set-up: host or cells: CHO cells, stably transfected; membranes
# T2 sequence (P08912 1-532): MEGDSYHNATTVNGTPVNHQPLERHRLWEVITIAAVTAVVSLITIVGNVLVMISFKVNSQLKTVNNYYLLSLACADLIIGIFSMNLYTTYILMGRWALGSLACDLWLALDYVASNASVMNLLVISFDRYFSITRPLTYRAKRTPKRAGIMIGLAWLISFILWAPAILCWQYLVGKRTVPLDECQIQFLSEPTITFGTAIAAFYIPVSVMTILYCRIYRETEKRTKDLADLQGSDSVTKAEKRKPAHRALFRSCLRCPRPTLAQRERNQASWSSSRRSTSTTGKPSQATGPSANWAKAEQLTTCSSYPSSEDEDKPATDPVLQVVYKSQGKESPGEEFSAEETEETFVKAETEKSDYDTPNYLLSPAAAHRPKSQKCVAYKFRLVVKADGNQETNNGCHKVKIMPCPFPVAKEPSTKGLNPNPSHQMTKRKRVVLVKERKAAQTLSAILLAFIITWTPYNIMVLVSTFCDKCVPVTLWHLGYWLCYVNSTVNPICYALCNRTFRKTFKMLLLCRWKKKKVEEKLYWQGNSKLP
# Text: (§1) Cooperativity factor greater than 1 denotes negative cooperativity and less than 1 positive cooperativity. Due to its log-normal error distribution factors of cooperativity are expressed as negative logarithms (pα) through the manuscript so negative values denotes negative cooperativity and positive value denotes positive cooperativity.
# M4 muscarinic receptor [2] = molecular target: T3, M4 muscarinic receptor (Homo sapiens, UniProt P08173); assay: Effect of rapacuronium on 1 nM [3H]NMS binding; set-up: host or cells: CHO cells, stably transfected; membranes
# T3 sequence (P08173 1-479): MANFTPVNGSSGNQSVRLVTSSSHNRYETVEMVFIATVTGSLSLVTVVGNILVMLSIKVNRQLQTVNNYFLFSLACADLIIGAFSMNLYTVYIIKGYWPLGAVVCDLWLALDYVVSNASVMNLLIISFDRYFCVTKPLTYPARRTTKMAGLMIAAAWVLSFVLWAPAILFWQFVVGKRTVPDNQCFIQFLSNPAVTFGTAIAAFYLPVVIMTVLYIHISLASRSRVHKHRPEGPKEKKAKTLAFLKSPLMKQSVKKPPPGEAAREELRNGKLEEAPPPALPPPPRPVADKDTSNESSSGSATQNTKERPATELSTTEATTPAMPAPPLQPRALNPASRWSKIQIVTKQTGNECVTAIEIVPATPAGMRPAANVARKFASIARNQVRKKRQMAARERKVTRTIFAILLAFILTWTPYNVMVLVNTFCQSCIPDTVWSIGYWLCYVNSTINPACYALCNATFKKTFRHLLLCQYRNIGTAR
# Text: as §1
# M3 muscarinic receptor = molecular target: T4, M3 muscarinic receptor (Homo sapiens, UniProt P20309); assay: Effect of rapacuronium on low-affinity ACh binding ([3H]NMS + GTPγS + ACh)
# T4 construct: host or cells: CHO cells, stably transfected; membranes
# Text: (§2) Data are expressed as percent of specific binding in the absence of rapacuronium. […] Data are means ± SE from 3 independent experiments performed in quadruplicates. Curves are fits of Eq. 3 (circles) and Eq. 4 (squares and triangles) to data prior to normalization.
# M1 muscarinic receptor = molecular target: T5, M1 muscarinic receptor (Homo sapiens, UniProt P11229); assay: as above
# T5 construct: host or cells: CHO cells, stably transfected; membrane preparation
# T5 sequence (P11229 1-460): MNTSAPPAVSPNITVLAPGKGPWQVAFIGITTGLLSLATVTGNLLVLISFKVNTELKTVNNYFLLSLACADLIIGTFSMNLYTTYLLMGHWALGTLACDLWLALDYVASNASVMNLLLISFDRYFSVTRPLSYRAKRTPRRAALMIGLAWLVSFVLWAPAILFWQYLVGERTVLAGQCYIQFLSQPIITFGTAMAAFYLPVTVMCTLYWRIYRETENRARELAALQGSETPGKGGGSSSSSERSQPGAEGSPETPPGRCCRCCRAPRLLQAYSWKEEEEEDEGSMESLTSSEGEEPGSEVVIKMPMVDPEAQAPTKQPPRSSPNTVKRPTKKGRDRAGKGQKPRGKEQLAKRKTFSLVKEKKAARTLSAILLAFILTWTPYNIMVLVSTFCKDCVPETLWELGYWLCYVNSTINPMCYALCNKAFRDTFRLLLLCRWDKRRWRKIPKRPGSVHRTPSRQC
# Text: as §2
# M5 muscarinic receptor [3] = molecular target: T2, M5 muscarinic receptor; assay: Effect of rapacuronium on high-affinity 20 nM [3H]ACh binding; set-up: host or cells: CHO cells, stably transfected; membranes
# Text: as §1
# M4 muscarinic receptor [4] = molecular target: T3, M4 muscarinic receptor; assay: as above; set-up: host or cells: CHO cells, stably transfected; membranes
# Text: as §1
# [5] = M5, negative value = negative cooperativity
# [6] = read-out: pKA of rapacuronium (converted)
# [7] = M4, negative value = negative cooperativity
# T4 sequence (P20309 whole entry): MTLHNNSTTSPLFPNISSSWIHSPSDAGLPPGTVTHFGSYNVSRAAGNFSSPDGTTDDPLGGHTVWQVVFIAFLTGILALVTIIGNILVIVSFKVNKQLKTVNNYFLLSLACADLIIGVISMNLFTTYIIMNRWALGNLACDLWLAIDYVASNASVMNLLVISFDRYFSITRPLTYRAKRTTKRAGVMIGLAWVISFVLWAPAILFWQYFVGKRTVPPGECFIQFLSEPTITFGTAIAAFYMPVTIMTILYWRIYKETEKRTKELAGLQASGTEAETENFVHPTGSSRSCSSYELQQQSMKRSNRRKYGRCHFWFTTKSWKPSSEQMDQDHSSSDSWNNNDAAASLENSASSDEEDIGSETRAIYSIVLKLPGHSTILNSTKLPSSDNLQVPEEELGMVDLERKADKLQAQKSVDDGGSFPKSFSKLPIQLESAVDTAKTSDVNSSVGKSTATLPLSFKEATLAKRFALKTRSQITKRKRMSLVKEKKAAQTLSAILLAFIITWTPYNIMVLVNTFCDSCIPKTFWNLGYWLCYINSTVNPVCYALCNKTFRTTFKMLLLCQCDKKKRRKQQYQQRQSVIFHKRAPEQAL
compound,measurement,setting,value
C=CC[N+]1([C@H]2C[C@H]3[C@@H]4CC[C@H]5C[C@H](OC(C)=O)[C@@H](N6CCCCC6)C[C@]5(C)[C@H]4CC[C@]3(C)[C@H]2OC(=O)CC)CCCCC1 [rapacuronium],time of peak of [^3H]ACh association,M2 muscarinic receptor,around 90 seconds
same,decrease in affinity of [^3H]NMS (cooperativity),M5 muscarinic receptor [1]; M5,35 fold
same,"pα, cooperativity with [^3H]NMS",M5 muscarinic receptor [1]; [5],-1.54 ± 0.05
same,Kd,M5 muscarinic receptor [1]; [6],10.7 µM
same,"pα, cooperativity with [^3H]NMS",M4 muscarinic receptor [2]; [7],-1.40 ± 0.04
same,Kd,M4 muscarinic receptor [2]; [6],3.8 µM
same,decrease in ACh low-affinity binding (cooperativity),M3 muscarinic receptor; M3,16 fold
same,"pβ, cooperativity with ACh low affinity binding","M3 muscarinic receptor; M3, negative value = negative cooperativity",-1.20 ± 0.07
same,Kd,M3 muscarinic receptor; [6],17 µM
same,pKd,M1 muscarinic receptor,5.33
same,"pβ, cooperativity with ACh low affinity binding","M1 muscarinic receptor; M1, negative value = negative cooperativity",-1.32 ± 0.06
same,"pα, cooperativity with [^3H]ACh high affinity binding",M5 muscarinic receptor [3]; [5],-1.34 ± 0.07
same,Kd,M5 muscarinic receptor [3]; [6],12 µM
same,"pα, cooperativity with [^3H]ACh high affinity binding",M4 muscarinic receptor [4]; [7],-1.51 ± 0.05
same,Kd,M4 muscarinic receptor [4]; [6],3.89 µM
